This is an account of results in patent US9546152B2 (MERCK SHARP & DOHME CORP., priority 2012, dated 2017).

The target in assay [1] is T1, human orexin-2 receptor (Homo sapiens (Human), UniProt O43614). The assay can be described thus: FLIPR Ca2+ Flux Assay, orexin-2 receptor. It counts as cell-based. The following applies: CHO cells expressing the human orexin-2 receptor; agonist 70 pM Ala-6,12 human orexin-A; read-out: hOX2R FLIPR IC50. How it is done: (§1) In a typical experiment the OX1 and OX2 receptor antagonistic activity of the compounds of the present invention was determined in accordance with the following experimental method. For intracellular calcium measurements, Chinese hamster ovary (CHO) cells expressing the rat orexin-1 receptor or the human orexin-2 receptor, are grown in Iscove's modified DMEM containing 2 mM L-glutamine, […], 1% hypoxanthine-thymidine supplement, 100 U/ml penicillin, 100 μg/ml streptomycin and 10% heat-inactivated fetal calf serum (FCS). The cells are seeded at 20,000 cells/well into Becton-Dickinson black 384-well clear bottom sterile plates coated with poly-D-lysine. All reagents were from GIBCO-Invitrogen Corp. The seeded plates are incubated overnight at 37° C. and 5% CO2. Ala-6,12 human orexin-A as the agonist is prepared as a 1 mM stock solution in 1% bovine serum albumin (BSA) and diluted in assay buffer (HBSS containing 20 mM HEPES, 0.1% BSA and 2.5 mM probenecid, pH7.4) for use in the assay at a final concentration of 70 pM. Test compounds are prepared as 10 mM stock solution in DMSO, then diluted in 384-well plates, first in DMSO, then assay buffer. On the day of the assay, cells are washed 3 times with 100 μl assay buffer and then incubated for 60 min (37° C., 5% CO2) in 60 μl assay buffer containing 1 μM Fluo-4AM ester, 0.02% pluronic acid, and 1% BSA. The dye loading solution is then aspirated and cells are washed 3 times with 100 μl assay buffer. 30 μl of that same buffer is left in each well. Within the Fluorescent Imaging Plate Reader (FLIPR, Molecular Devices), test compounds are added to the plate in a volume of 25 μl, incubated for 5 min and finally 25 μl of agonist is added. Fluorescence is measured for each well at 1 second intervals for 5 minutes and the height of each fluorescence peak is compared to the height of the fluorescence peak induced by 70 pM Ala-6,12 orexin-A with buffer in place of antagonist. […] Alternatively, compound potency can be assessed by a radioligand binding assay (described in Bergman et. al. Bioorg. Med. Chem. Lett. 2008, 18, 1425-1430) in which the inhibition constant (Ki) is determined in membranes prepared from CHO cells expressing either the OX1 or OX2 receptor. The intrinsic orexin receptor antagonist activity of a compound which may be used in the present invention may be determined by these assays.
T1 sequence (O43614 whole entry): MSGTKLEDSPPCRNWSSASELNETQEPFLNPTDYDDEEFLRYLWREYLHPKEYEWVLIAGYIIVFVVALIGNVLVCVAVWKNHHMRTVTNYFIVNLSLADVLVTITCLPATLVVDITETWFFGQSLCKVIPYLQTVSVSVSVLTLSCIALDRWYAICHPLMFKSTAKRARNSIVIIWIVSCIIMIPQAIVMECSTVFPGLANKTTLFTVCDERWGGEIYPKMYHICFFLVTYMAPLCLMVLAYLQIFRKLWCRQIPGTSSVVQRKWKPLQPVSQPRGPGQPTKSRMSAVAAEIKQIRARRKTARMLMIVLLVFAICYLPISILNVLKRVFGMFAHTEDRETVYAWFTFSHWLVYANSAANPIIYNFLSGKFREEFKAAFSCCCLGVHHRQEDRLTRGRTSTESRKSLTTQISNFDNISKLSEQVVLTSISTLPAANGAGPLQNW
On the technique in general: Calcium flux is commonly read through the fluorescence of an indicator in the cells.

Assay [2] concerns the target T1, human orexin-2 receptor. The assay can be described thus: radioligand binding assay, orexin-2 receptor. The conditions noted are these: membranes prepared from CHO cells expressing the OX2 receptor; read-out: hOX2R BIND hKi. How it is done: as §1
Assay [3] addresses rat orexin-1 receptor (Rattus norvegicus (Rat), UniProt P56718). The assay can be described thus: FLIPR Ca2+ Flux Assay, orexin-1 receptor. The following applies: CHO cells expressing the rat orexin-1 receptor; agonist 70 pM Ala-6,12 human orexin-A; read-out: hOX1R FLIPR IC50. It counts as cell-based. How it is done: as §1

Where only a bound is given, the exact number is not on record here.

Chain of rat orexin-1 receptor (P56718 whole entry): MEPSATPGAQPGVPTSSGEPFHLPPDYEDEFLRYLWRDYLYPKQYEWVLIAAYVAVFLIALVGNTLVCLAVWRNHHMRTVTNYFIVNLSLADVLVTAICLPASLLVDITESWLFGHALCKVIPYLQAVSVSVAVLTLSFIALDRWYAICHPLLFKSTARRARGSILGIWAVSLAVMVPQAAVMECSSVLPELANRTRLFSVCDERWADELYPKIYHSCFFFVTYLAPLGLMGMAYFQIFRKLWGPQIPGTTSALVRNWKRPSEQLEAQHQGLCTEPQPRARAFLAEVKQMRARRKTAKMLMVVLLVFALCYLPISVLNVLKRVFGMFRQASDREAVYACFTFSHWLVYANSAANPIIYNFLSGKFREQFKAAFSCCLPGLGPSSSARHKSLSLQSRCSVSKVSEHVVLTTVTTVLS

The term IC50 denotes the midpoint of a concentration-inhibition curve. On to `Cc1c(C#N)ccnc1O[C@@H]1CC[C@@H](C)N(C(=O)c2cc(F)ccc2-c2nccs2)C1` [Example 28, 2-{[(3R,6R)-1-{[5-fluoro-2-(1,3-thiazol-2-yl)phenyl]carbonyl}-6-methylpiperidin-3-yl]oxy}-3-methylpyridine-4-carbonitrile], for which the IC50 in assay [1] was 5 nM; in assay [3], 412 nM. Besides, in assay [2], the Ki came to 0.1 nM.
On to `Cc1c(C#N)ccnc1O[C@@H]1CC[C@@H](C)N(C(=O)c2ccccc2N2CCCC2)C1` [Example 29, 3-methyl-2-({(3R,6R)-6-methyl-1-[(2-pyrrolidin-1-ylphenyl)carbonyl]piperidin-3-yl}oxy)pyridine-4-carbonitrile], for which the results for the IC50 in assay [1] and in assay [3] were 29 nM and 3100 nM, respectively. The Ki in assay [2] is 3.4 nM.
The like results for `Cc1c(C#N)ccnc1O[C@@H]1CC[C@@H](C)N(C(=O)c2ccc(Br)nc2-n2nccn2)C1` [Example 89, 2-{[(3R,6R)-1-{[6-Bromo-2-(2H-1,2,3-triazol-2-yl)pyridin-3-yl]carbonyl}-6-methylpiperidin-3-yl]oxy}-3-methylpyridine-4-carbonitrile] were, in that order, 29 nM, more than 10000 nM and 5.1 nM.
The corresponding values for `COc1c(C#N)ccnc1O[C@@H]1CC[C@@H](C)N(C(=O)c2cccc(C)c2-n2nccn2)C1` [Example 101, 3-methoxy-2-{[(3R,6R)-6-methyl-1-{[3-methyl-2-(2H-1,2,3-triazol-2-yl)phenyl]carbonyl}piperidin-3-yl]oxy}pyridine-4-carbonitrile] are 21 nM, 957 nM and 0.3 nM.
The like results for `Cc1c(C#N)ccnc1O[C@@H]1CC[C@@H](C)N(C(=O)c2ccc(OCF)nc2-n2nccn2)C1` [Example 88, 2-{[(3R,6R)-1-{[6-(Fluoromethoxy)-2-(2H-1,2,3-triazol-2-yl)pyridin-3-yl]carbonyl}-6-methylpiperidin-3-yl]oxy}-3-methylpyridine-4-carbonitrile] were, in that order, 58 nM, more than 10000 nM and 9.2 nM.
Take `Cc1c(C#N)ccnc1O[C@@H]1CC[C@@H](C)N(C(=O)c2ncccc2-c2cscn2)C1` [Example 24, 3-methyl-2-{[(3R,6R)-6-methyl-1-{[3-(1,3-thiazol-4-yl)pyridin-2-yl]carbonyl}piperidin-3-yl]oxy}pyridine-4-carbonitrile]: the values for the concentration for half-maximal inhibition (IC50) in assay [1] and in assay [3] were 24 nM and 4900 nM, respectively. Also, in assay [2], the Ki worked out at 3.8 nM.
The like results for `COc1ccc(-c2ccccc2C(=O)N2C[C@H](Oc3nccc(C#N)c3C)CC[C@H]2C)cn1` [Example 49, 2-{[(3R,6R)-1-{[2-(6-methoxypyridin-3-yl)phenyl]carbonyl}-6-methylpiperidin-3-yl]oxy}-3-methylpyridine-4-carbonitrile] were, in that order, 15 nM, 469 nM and 0.5 nM.
Consider `CSc1ccccc1C(=O)N1C[C@H](Oc2nccc(C#N)c2C)CC[C@H]1C` [Example 61, 3-methyl-2-{[(3R,6R)-6-methyl-1-{[2-(methylsulfanyl)phenyl]carbonyl}piperidin-3-yl]oxy}pyridine-4-carbonitrile], for which the results for the IC50 in assay [1] and in assay [3] were 35 nM and 7950 nM, respectively. Further, the Ki in assay [2] was determined as 1.4 nM.
The like results for `COc1c(C#N)ccnc1O[C@@H]1CC[C@@H](C)N(C(=O)c2ccc(C)cc2-n2nccn2)C1` [Example 102, 3-methoxy-2-{[(3R,6R)-6-methyl-1-{[4-methyl-2-(2H-1,2,3-triazol-2-yl)phenyl]carbonyl}piperidin-3-yl]oxy}pyridine-4-carbonitrile] were, in that order, 21 nM, 3550 nM and 0.4 nM.
The corresponding values for `COc1ccc(C(=O)N2C[C@H](Oc3nccc(C#N)c3C)CC[C@H]2C)c(-c2ccn(C)n2)n1` [Example 81, 2-{[(3R,6R)-1-{[6-methoxy-2-(1-methyl-1H-pyrazol-3-yl)pyridin-3-yl]carbonyl}-6-methylpiperidin-3-yl]oxy}-3-methylpyridine-4-carbonitrile] are 64.6 nM, 10000 nM and 8.4 nM.
With `Cc1c(C#N)ccnc1O[C@@H]1CC[C@@H](C)N(C(=O)c2ccsc2-c2cscn2)C1` [Example 31, 3-methyl-2-{[(3R,6R)-6-methyl-1-{[2-(1,3-thiazol-4-yl)thiophen-3-yl]carbonyl}piperidin-3-yl]oxy}pyridine-4-carbonitrile], the half-inhibitory concentration (IC50) was found to be 11 nM in assay [1] and 2030 nM in assay [3]. Further, in assay [2], the Ki worked out at 0.8 nM.
Consider `Cc1ccc(C(=O)N2C[C@H](Oc3nccc(C#N)c3C)CC[C@H]2C)c(-c2ncccn2)c1` [Example 76, 3-methyl-2-({(3R,6R)-6-methyl-1-[(4-methyl-2-pyrimidin-2-ylphenyl)carbonyl]piperidin-3-yl}oxy)pyridine-4-carbonitrile], for which the IC50 in assay [1] was 37 nM; in assay [3] it was 1270 nM. The Ki in assay [2] was 2.1 nM.
The corresponding values for `Cc1nc(C(=O)N2C[C@H](Oc3nccc(C#N)c3C)CC[C@H]2C)c(-c2ccc(F)cc2)s1` [Example 41, 2-{[(3R,6R)-1-{[5-(4-fluorophenyl)-2-methyl-1,3-thiazol-4-yl]carbonyl}-6-methylpiperidin-3-yl]oxy}-3-methylpyridine-4-carbonitrile] are 48 nM, 1200 nM and 4.6 nM.
The like results for `COc1c(C#N)ccnc1O[C@@H]1CC[C@@H](C)N(C(=O)c2ccccc2-n2ncnn2)C1` [Example 115, 3-Methoxy-2-{[(3R,6R)-6-methyl-1-{[2-(2H-tetrazol-2-yl)phenyl]carbonyl}piperidin-3-yl]oxy}pyridine-4-carbonitrile] were, in that order, 6 nM, 1650 nM and 1.4 nM.
The like results for `CCOc1ncccc1C(=O)N1C[C@H](Oc2nccc(C#N)c2C)CC[C@H]1C` [Example 68] were, in that order, 36 nM, more than 10000 nM and 5.9 nM.
Consider `COc1cccc(-n2nccn2)c1C(=O)N1C[C@H](Oc2nccc(C#N)c2C)CC[C@H]1C` [Example 14, 2-{[(3R,6R)-1-{[2-methoxy-6-(2H-1,2,3-triazol-2-yl)phenyl]carbonyl}-6-methylpiperidin-3-yl]oxy}-3-methylpyridine-4-carbonitrile], for which the half-maximal inhibitory concentration (IC50) in assay [1] was found to be 15 nM; in assay [3], 507 nM. The Ki in assay [2] worked out at 0.2 nM.
In the case of `Cc1c(C#N)ccnc1O[C@@H]1CC[C@@H](C)N(C(=O)c2ccccc2C2CC2)C1` [Example 16, 2-({(3R,6R)-1-[(2-cyclopropylphenyl)carbonyl]-6-methylpiperidin-3-yl}oxy)-3-methylpyridine-4-carbonitrile], the half-inhibitory concentration (IC50) in assay [1] is 9 nM; in assay [3] it was 1740 nM. Moreover, the Ki in assay [2] worked out at 0.7 nM.
As for `COc1c(C#N)ccnc1O[C@@H]1CC[C@@H](C)N(C(=O)c2cc(F)ccc2-c2ncccn2)C1` [Example 111, 2-({(3R,6R)-1-[(5-fluoro-2-pyrimidin-2-ylphenyl)carbonyl]-6-methylpiperidin-3-yl}oxy)-3-methoxypyridine-4-carbonitrile], the IC50 came out at 18 nM in assay [1] and 945 nM in assay [3]. Besides, in assay [2], the Ki came to 0.3 nM.
The like results for `Cc1c(C#N)ccnc1O[C@@H]1CC[C@@H](C)N(C(=O)c2ccc(CO)cc2-c2ccccc2)C1` [Example 54, 2-{[(3R,6R)-1-{[5-(hydroxymethyl)biphenyl-2-yl]carbonyl}-6-methylpiperidin-3-yl]oxy}-3-methylpyridine-4-carbonitrile] were, in that order, 37 nM, 1390 nM and 3.2 nM.
The like results for `Cc1c(C#N)ccnc1O[C@@H]1CC[C@@H](C)N(C(=O)c2cnc(Cl)cc2-n2nccn2)C1` [Example 67, 2-{[(3R,6R)-1-{[6-chloro-4-(2H-1,2,3-triazol-2-yl)pyridin-3-yl]carbonyl}-6-methylpiperidin-3-yl]oxy}-3-methylpyridine-4-carbonitrile] were, in that order, 35 nM, more than 10000 nM and 4.7 nM.
